Assay results: patent publication US9181218B2, “Compounds for improved stem cell differentiation into hepatocytes” (Hoffmann-La Roche Inc., priority 2013, dated 2015)

Test system: interferon-stimulated genes (ISGs)
Assay: Microarray analysis of iCell Hepatocytes treated with the compound of example 1
Type: cell-based, Human
Excerpt: iCell Hepatocytes treated with the compound of example 1 results in the up and down-regulation of a host of genes; including a kinetic effect on interferon-stimulated gene (ISGs) expression. See FIGS. 15-I and 15-II, 16-I and 16-II and 18 and Table 1.

O=C(NCc1cccc(F)c1)c1cccc2nc(-c3c(NC[C@@H](O)c4ccccc4)cc[nH]c3=O)[nH]c12 [Example 1, 2-[4-((S)-2-hydroxy-2-phenyl-ethylamino)-2-oxo-1,2-dihydro-pyridin-3-yl]-3H-benzoimidazole-4-carboxylic acid 3-fluoro-benzylamide]
ADAM19 Raw Est Fold Change (2 HOUR): 2.77 | AES Raw Est Fold Change (2 HOUR): 2.07 | AKT3 Raw Est Fold Change (2 HOUR): −1.76 | ASNS Raw Est Fold Change (2 HOUR): 1.80 | BCL3 Raw Est Fold Change (2 HOUR): −1.44 | BUB1 Raw Est Fold Change (2 HOUR): −20.72 | C10orf10 Raw Est Fold Change (2 HOUR): −3.72 | CD80 Raw Est Fold Change (2 HOUR): −13.65 | CD300LF Raw Est Fold Change (2 HOUR): 5.42 | CEBPD Raw Est Fold Change (2 HOUR): −1.29 | CSNK1D Raw Est Fold Change (2 HOUR): 1.10 | DDIT4 Raw Est Fold Change (2 HOUR): 2.67 | DRAP1 Raw Est Fold Change (2 HOUR): 1.17 | EFNB2 Raw Est Fold Change (2 HOUR): −1.63 | EHHADH Raw Est Fold Change (2 HOUR): −1.16 | EPAS1 Raw Est Fold Change (2 HOUR): −2.61 | ETV7 Raw Est Fold Change (2 HOUR): −2.54 | FGF2 Raw Est Fold Change (2 HOUR): −1.76 | GOLGA3 Raw Est Fold Change (2 HOUR): 1.45 | GTPBP2 Raw Est Fold Change (2 HOUR): −1.29 | HLA-C Raw Est Fold Change (2 HOUR): −4.87 | ISGF3G Raw Est Fold Change (2 HOUR): −1.17 | JAK1 Raw Est Fold Change (2 HOUR): −5.55 | JUNB Raw Est Fold Change (2 HOUR): −6.01 | KAL1 Raw Est Fold Change (2 HOUR): −2.61 | KPNB1 Raw Est Fold Change (2 HOUR): 1.14 | MAX Raw Est Fold Change (2 HOUR): 3.74 | MPO Raw Est Fold Change (2 HOUR): −3.18 | PCMT1 Raw Est Fold Change (2 HOUR): −1.10 | PHF11 Raw Est Fold Change (2 HOUR): −1.80 | PHF15 Raw Est Fold Change (2 HOUR): 1.74 | PI4K2B Raw Est Fold Change (2 HOUR): −1.08 | PIM3 Raw Est Fold Change (2 HOUR): −1.19 | PXK Raw Est Fold Change (2 HOUR): 1.17 | RHOH Raw Est Fold Change (2 HOUR): −14.71 | SCARB2 Raw Est Fold Change (2 HOUR): 1.50 | SOCS1 Raw Est Fold Change (2 HOUR): −4.13 | SOCS3 Raw Est Fold Change (2 HOUR): −9.95 | TXNIP Raw Est Fold Change (2 HOUR): −2.04 | ABHD5 Raw Est Fold Change (24 HOUR): −1.43 | ADM Raw Est Fold Change (24 HOUR): −1.81 | AKAP12 Raw Est Fold Change (24 HOUR): 3.33 | ALCAM Raw Est Fold Change (24 HOUR): −1.24 | AMPH Raw Est Fold Change (24 HOUR): −3.29 | ARHGDIB Raw Est Fold Change (24 HOUR): −1.72 | ARHGEF3 Raw Est Fold Change (24 HOUR): −1.32 | ATF3 Raw Est Fold Change (24 HOUR): −3.06 | AXL Raw Est Fold Change (24 HOUR): −6.82 | B4GALT5 Raw Est Fold Change (24 HOUR): −1.87 | BAG1 Raw Est Fold Change (24 HOUR): 1.26 | BCL3 Raw Est Fold Change (24 HOUR): −3.11 | BHMT Raw Est Fold Change (24 HOUR): 5.84 | BLZF1 Raw Est Fold Change (24 HOUR): −1.26 | BST2 Raw Est Fold Change (24 HOUR): −1.70 | BTG1 Raw Est Fold Change (24 HOUR): −1.16 | BUB1 Raw Est Fold Change (24 HOUR): −33.18 | C1S Raw Est Fold Change (24 HOUR): −1.62 | C4orf32 Raw Est Fold Change (24 HOUR): −7.20 | C4orf33 Raw Est Fold Change (24 HOUR): 3.95 | C10orf10 Raw Est Fold Change (24 HOUR): −2.71 | CASP4 Raw Est Fold Change (24 HOUR): −5.09 | CASP5 Raw Est Fold Change (24 HOUR): −3.00 | CCND3 Raw Est Fold Change (24 HOUR): −1.81 | CD38 Raw Est Fold Change (24 HOUR): −10.02 | CD47 Raw Est Fold Change (24 HOUR): −1.52 | CEBPD Raw Est Fold Change (24 HOUR): −2.58 | CHD6 Raw Est Fold Change (24 HOUR): 1.16 | CHST12 Raw Est Fold Change (24 HOUR): −1.21 | CLCN6 Raw Est Fold Change (24 HOUR): −1.26 | CREB3L3 Raw Est Fold Change (24 HOUR): −3.22 | CRYM Raw Est Fold Change (24 HOUR): 2.03 | CSDA Raw Est Fold Change (24 HOUR): −2.38 | CTSL Raw Est Fold Change (24 HOUR): −1.28 | CX3CL1 Raw Est Fold Change (24 HOUR): 2.73 | CXCL10 Raw Est Fold Change (24 HOUR): 1.71 | CYBA Raw Est Fold Change (24 HOUR): −1.64 | CYP1B1 Raw Est Fold Change (24 HOUR): −2.71 | DDX17 Raw Est Fold Change (24 HOUR): −1.56 | DNAPTP6 Raw Est Fold Change (24 HOUR): 1.34 | DRAP1 Raw Est Fold Change (24 HOUR): 1.29 | EFNB2 Raw Est Fold Change (24 HOUR): −1.46 | EGR1 Raw Est Fold Change (24 HOUR): −2.86 | EHHADH Raw Est Fold Change (24 HOUR): 1.80 | EMP1 Raw Est Fold Change (24 HOUR): −5.94 | EPAS1 Raw Est Fold Change (24 HOUR): −2.84 | ETS2 Raw Est Fold Change (24 HOUR): −1.73 | ETV6 Raw Est Fold Change (24 HOUR): −1.37 | ETV7 Raw Est Fold Change (24 HOUR): −3.88 | FAM125B Raw Est Fold Change (24 HOUR): −1.54 | FBXO6 Raw Est Fold Change (24 HOUR): 3.00 | FFAR2 Raw Est Fold Change (24 HOUR): −7.50 | FKBP1B Raw Est Fold Change (24 HOUR): −1.90 | FKBP5 Raw Est Fold Change (24 HOUR): −1.39 | FLT1 Raw Est Fold Change (24 HOUR): −1.75 | FNDC3B Raw Est Fold Change (24 HOUR): −1.67 | FNDC4 Raw Est Fold Change (24 HOUR): −1.59 | FUBP1 Raw Est Fold Change (24 HOUR): −1.50 | FUT4 Raw Est Fold Change (24 HOUR): −1.89 | G6PC Raw Est Fold Change (24 HOUR): 4.22 | GALNT2 Raw Est Fold Change (24 HOUR): −5.18 | GBP2 Raw Est Fold Change (24 HOUR): −1.83 | GBP4 Raw Est Fold Change (24 HOUR): −3.07 | GCH1 Raw Est Fold Change (24 HOUR): 1.17 | GK Raw Est Fold Change (24 HOUR): −2.50 | GLUL Raw Est Fold Change (24 HOUR): 1.13 | GNAI1 Raw Est Fold Change (24 HOUR): 1.43 | GOLGA3 Raw Est Fold Change (24 HOUR): −1.24 | GTF2F1 Raw Est Fold Change (24 HOUR): 1.28 | GTPBP1 Raw Est Fold Change (24 HOUR): −1.24 | HEG1 Raw Est Fold Change (24 HOUR): −3.64 | HIF1A Raw Est Fold Change (24 HOUR): −1.47 | HK2 Raw Est Fold Change (24 HOUR): −1.88 | HLA-DPA1 Raw Est Fold Change (24 HOUR): −2.10 | HLA-DPB1 Raw Est Fold Change (24 HOUR): −2.11 | ICAM1 Raw Est Fold Change (24 HOUR): −6.60 | IER3 Raw Est Fold Change (24 HOUR): −2.60 | IFI16 Raw Est Fold Change (24 HOUR): −6.86 | IFI27 Raw Est Fold Change (24 HOUR): −1.56 | IFIT1 Raw Est Fold Change (24 HOUR): 3.58 | IFIT3 Raw Est Fold Change (24 HOUR): 1.88 | IFITM1 Raw Est Fold Change (24 HOUR): −3.11
